Laboratory results published in US12102634B2, “Use of berbamine or its analogue for preventing or treating RNA virus infection” (City University of Hong Kong, priority 2019, dated 2024).
Entries after “also recorded” stand apart in the source; their conditions may differ. Read-outs that look alike come from different tables or passages of the source.

Columns and labels:
JEV [1] = experiment: Western blot of JEV envelope protein in A549 cells; settings: dose dependent
ZIKV [2] = experiment: Viral positive RNA strand hybridization in host cells treated with calcium chelator; type: cell-based, Zika virus
JEV [3] = experiment: High-content image assay (DsRNA immunostaining), JEV infection of A549 cells; settings: for JEV infection in A549 host cells (relative infectivity, FIG. 8A): 13 compounds from virtual screening; for entry of JEV into the host cells (FIG. 8B): A549 cells; for entry of JEV into the host cells (FIG. 8B) / JEV infection of host cells: about 50 MOI JEV; for JEV infection of host cells: A549 cells pretreated 1 h
ZIKV [4] = experiment: High-content image assay, ZIKV infection of JEG-3 cells; settings: JEG-3 cells pretreated 1 h, about 50 MOI, 18 h
JEV [5] = experiment: Western blot of JEV-NS1 expression in JEV-infected A549 cells; settings: A549 cells pretreated 1 h
ZIKV [6] = experiment: Western blot of ZIKV-E expression in ZIKV-infected A549 cells; settings: A549 cells pretreated 1 h
JEV [7] = experiment: High-content image assay, JEV infection of JEG-3 cells; settings: JEG-3 cells pretreated 1 h, about 50 MOI, 18 h
TRPMLs = experiment: ML-SA1-induced cytosolic Ca2+ increase in Fura-2-loaded HeLa cells; type: cell-based
Method: (§1) HeLa cells were grown in 24-well plates to ˜80% confluency. The cells were then loaded with HBSS (Gibco, 14025092) containing 4 μM Fura-2 AM (Invitrogen, F1221) and 0.4% Pluronic™ F-127 (Invitrogen, P3000MP) at room temperature for 30 min. The cells were then washed with Ca^2+-free HBSS containing 2 mM EGTA and incubated in Ca^2+-free HBSS in the presence or absence of berbamine (10 μM) at room temperature for another 30 min. Fluorescence images were acquired at 3 s intervals by alternate excitation at 340 nm and 380 nm with emission at 510 nm using a Nikon Eclipse Ti-S Calcium imaging system. Approximately 1 min after live cell imaging, 200 μM GPN (Abcam, ab145914) or 25 μM ML-SA1 (Tocris Bioscience, 4746) was added to the cells to trigger Ca2+ release from the lysosomes.

ACE2 = type: cell-based
SARS-CoV-2 [8] = experiment: in vitro; settings: African green monkey
SARS-CoV-2 [9] = experiment: SARS-CoV-2 infection of Vero-E6 cells, virus titration assay; type: cell-based; settings: Severe acute respiratory syndrome coronavirus 2, Vero C1008, read-out: EC50, SARS-CoV-2 viral yield by virus titration assay
Method: FIG. 12F is a plot showing the inhibition rate determined by using virus titer measurement, in which Vero-E6 cells were treated with berbamine at the indicated concentrations for 3 h, followed by infection with SARS-CoV-2.

Huh7 cells = experiment: Secretion of extracellular vesicles by Huh7 cells, nanoparticle tracking analyzer; type: cell-based
Method: The EVs were collected from the culture medium of control or berbamine-treated Huh7 cells, and their concentration and distribution of sizes were determined with a nanoparticle tracking analyzer.
The inventors then examined whether these EVs contain elevated levels of ACE2 or DPP4 in the berbamine-treated group when compared with the control group. Thus, EVs in the culture medium from the control and berbamine-treated Huh7 cells were collected by ultracentrifugation, and the protein levels of ACE2 and DPP4 were analyzed by immunoblot analysis. […] The inventors also speculated that the increase in the secretion of ACE2 and DPP4-containing exosomes out of cells might lead to the reduced levels of these receptors in berbamine-treated cells. […] Similar results regarding the effects of berbamine on the expression of ACE2 in cells or EVs have also observed in A549 cells (FIGS. 15D and 15E). […] This leads to an increase in the level of secretion of ACE2 or DPP4 via EVs and a concomitant decrease in their levels at the plasma membrane.
Purification of extracellular vesicles from the culture medium-A549 cells or Huh7 cells were grown in 15-cm dishes to ˜80% confluency. The cells were then rinsed with PBS and incubated in EV-depleted complete medium containing DMSO or berbamine (25 μM) for 48 h. […]

[10] = test system: MLV-SARS-CoV-2 S pseudotyped particles; type: cell-based
[11] = Cytotoxicity in Vero cells; settings: African green monkey
ZIKV [12] = experiment: High-content image assay (DsRNA immunostaining), ZIKV infection of A549 cells; settings: for ZIKV infection of host cells: A549 cells pretreated 1 h, about 50 MOI ZIKV
[13] = Cytotoxicity in A549 cells; settings: human
[14] = Cytotoxicity in Hela cells; settings: human
SARS-CoV-2 [15] = experiment: microbe, parasite or virus in culture; settings: Severe acute respiratory syndrome coronavirus 2, Vero C1008, read-out: EC50, SARS-CoV-2 viral yield by qRT-PCR assay
JEV [16] = experiment: Virus titration assay, JEV production in A549 cells; settings: A549 cells pretreated
[17] = Cytotoxicity in Huh7 cells; settings: human
lysosomal Ca^2+ channels = experiment: GPN-induced Ca2+ release from lysosomes in Fura-2-loaded HeLa cells; type: cell-based; settings: 10 μM, 200 μM GPN
Method: as §1

DENV-2 = experiment: DsRNA immunostaining, DENV-2 infection of A549 cells; settings: pretreated 1 h, about 10 MOI DENV-2, dose dependent
lentivirus = experiment: Lentivirus (histone B-RFP) infection of A549 cells; type: cell-based; settings: pretreated A549 cells, lentivirus encoding histone B-RFP
MERS-CoV = type: cell-based
EV-A71 = experiment: High-content image assay, EV-A71 infection of RD cells; type: cell-based, enterovirus EV-A71 (EV-71); settings: 10 MOI EV-71, read-out: EC50 against EV-A71 infection in RD cells
Source text: After viral infection, the cells are fixed.

DPP4 = type: cell-based
JEV [18] = experiment: JEV lethal challenge in mice; type: in vivo, BALB/c mice; settings: 15 days
Method: JEV-infected with berbamine-treated group. For infection, mice were injected intraperitoneally with approximately 10^6.5 TCID50 of JEV. For the berbamine treatment group, mice were injected intraperitoneally with a dose of 15 mg/kg berbamine or PBS daily. For the control-vehicle group, mice were injected intraperitoneally with a dose of 50 mg/kg PBS daily. Survival rate and change of body weight if the mice in each group were monitored for 15 days after JEV injection.

[19] = test system: MERS-SARS-CoV S pseudotyped particles; type: cell-based
ZIKV [20] = experiment: ZIKV entry, anti-ZIKV envelope protein immunostaining in A549 cells; settings: ZIKV on ice 1 h, then 37° C. 40 min
[21] = Cytotoxicity in BHK-21 cells; settings: Syrian hamster
JEV [22] = experiment: JEV-induced cell death in A549 or BHK-21 cells; settings: pretreated A549 cells or BHK-21 cells
[23] = EVs from treated Huh7 cell culture medium
[24] = Vero-E6 cells, cycloheximide, 50 μM, 6 h
[25] = 15 mg/kg intraperitoneally daily, vs control group

Q: With `CC(=O)OCOC(=O)CN(CC(=O)OCOC(C)=O)c1ccccc1OCCOc1ccccc1N(CC(=O)OCOC(C)=O)CC(=O)OCOC(C)=O` [BAPTA-AM] as the compound, how does the “expression of JEV envelope protein” value (JEV [1]) read?
A: markedly inhibited

Q: And the “viral positive RNA strand inside host cells” value (ZIKV [2])?
A: no ZIKV positive RNA strand was spotted

Q: Which “JEV infection in A549 host cells (relative infectivity, FIG. 8A)” value (JEV [3]) does the source give for `COc1cc(C(=O)N2c3ccccc3CCC2C)cc(OC)c1OC` (stereo not drawn) [Compound #1] here?
A: highest potency

Q: What about the “entry of JEV into the host cells (FIG. 8B)” value (JEV [3]) of the same compound?
A: effectively block

Q: For `COc1cc2c(cc1OC)C(C)N(C(=O)c1ccc(Br)cc1)CC2` (stereo not drawn) [Compound #7], which “JEV infection in A549 host cells (relative infectivity, FIG. 8A)” value (JEV [3]) is on record?
A: highest potency

Q: And the “entry of JEV into the host cells (FIG. 8B)” value (JEV [3])?
A: effectively block

Q: Which results are given for `COc1cc2c(cc1OC)C(c1cc(OC)c(OC)c(OC)c1)OCC2` (stereo not drawn) [Compound #9]?
A: JEV infection in A549 host cells (relative infectivity, FIG. 8A) (JEV [3]): highest potency; entry of JEV into the host cells (FIG. 8B) (JEV [3]): effectively block

Q: What does the source list for `COc1cccc(C(=O)CC2c3c(cc4c(c3OC)OCO4)CCN2C)c1` (stereo not drawn) [Compound #11]?
A: JEV infection in A549 host cells (relative infectivity, FIG. 8A) (JEV [3]): highest potency; entry of JEV into the host cells (FIG. 8B) (JEV [3]): effectively block

Q: Which results are given for `COc1cc2c3cc1Oc1c(OC)c(OC)cc4c1[C@@H](Cc1ccc(OC(=O)c5ccc([N+](=O)[O-])cc5)c(c1)Oc1ccc(cc1)C[C@@H]3N(C)CC2)N(C)CC4` [E6 berbamine]?
A: ZIKV infection in JEG-3 cells (ZIKV [4]): significantly inhibited; protein expression of JEV-NS1 (JEV [5]): strong inhibition; protein expression of ZIKV-E (ZIKV [6]): strong inhibition; JEV infection in JEG-3 cells (JEV [7]): significantly inhibited

Q: Which “cytosolic Ca2+ levels (agonist effect)” value (TRPMLs; 25 μM) does the source give for `CC1CC(C)(C)N(C(=O)CN2C(=O)c3ccccc3C2=O)c2ccccc21` (stereo not drawn) [ML-SA1, reference compound] here?
A: markedly increased

Q: For `COc1cc2c3cc1Oc1c(OC)c(OC)cc4c1[C@@H](Cc1ccc(O)c(c1)Oc1ccc(cc1)C[C@@H]3N(C)CC2)N(C)CC4` [berbamine], which “level of ACE2 in EVs” value (ACE2; [23]) is on record?
A: markedly increased

Q: What about the “level of ACE2 in cells” value (ACE2; [24]) of the same compound?
A: markedly decreased

Q: And the “ZIKV infection in JEG-3 cells” value (ZIKV [4])?
A: significantly inhibited

Q: What about the selectivity ratio (SARS-CoV-2 [8]) of the same compound?
A: 48.9

Q: And the EC50 (SARS-CoV-2 [9])?
A: ~4.7 µM

Q: And the “secretion of EVs” value (Huh7 cells)?
A: significantly promoted

Q: And the “protein expression of JEV-NS1” value (JEV [5])?
A: markedly inhibited

Q: And the “entry of MLV-SARS-CoV-2 S pseudovirus particles” value [10]?
A: effectively inhibited; also recorded: inhibited the entry

Q: What about the CC50 [11] of the same compound?
A: 115 ± 5.3 µM

Q: And the selectivity ratio (ZIKV [12]; human)?
A: 58.4

Q: What about the CC50 [13] of the same compound?
A: 127 ± 3.9 µM

Q: And the “protein expression of ZIKV-E” value (ZIKV [6])?
A: markedly inhibited

Q: What about the CC50 [14] of the same compound?
A: 115 ± 3.6 µM

Q: And the EC50 (SARS-CoV-2 [15])?
A: ~2.3 µM

Q: And the “production of JEV (virus titer)” value (JEV [16])?
A: significantly inhibited; also recorded: markedly inhibited

Q: And the CC50 [17]?
A: 90.4 ± 2.98 µM

Q: And the “GPN-induced cytosolic Ca2+ increase” value (lysosomal Ca^2+ channels)?
A: significantly inhibited

Q: And the “DENV-2 infection in A549 cells” value (DENV-2)?
A: significantly inhibit

Q: What about the “lentivirus infection of A549 cells” value (lentivirus) of the same compound?
A: abolished

Q: What about the “extracellular level of MERS-CoV RNA” value (MERS-CoV) of the same compound?
A: significantly decreased

Q: What about the “intracellular level of MERS-CoV RNA” value (MERS-CoV) of the same compound?
A: significantly decreased

Q: What about the EC50 (EV-A71) of the same compound?
A: ~17.3 µM

Q: And the EC50 (EV-A71; Enterovirus A, EV71 / EVA71, RD)?
A: ~17 µM

Q: And the “level of DPP4 in EVs” value (DPP4; [23])?
A: markedly increased

Q: What about the “level of DPP4 in cells” value (DPP4; [24]) of the same compound?
A: markedly decreased

Q: And the “body weight change of mice after JEV challenge” value (JEV [18]; [25])?
A: less weight changes

Q: What about the “survival rate of mice after JEV challenge” value (JEV [18]; [25]) of the same compound?
A: increases the survival rate

Q: What about the “survival rate of mock (uninfected) mice given compound vs mock group” value (JEV [18]; mock group with 15 mg/kg) of the same compound?
A: same survival rate

Q: What about the “entry of MERS-SARS-CoV S pseudovirus particles” value [19] of the same compound?
A: effectively inhibited; also recorded: inhibited the entry

Q: And the “JEV infection in JEG-3 cells” value (JEV [7])?
A: significantly inhibited

Q: What about the “entry of ZIKV into host cells” value (ZIKV [20]) of the same compound?
A: inhibitory effect

Q: What about the CC50 [21] of the same compound?
A: 127 ± 2.43 µM

Q: What about the JEV-induced cell death (JEV [22]) of the same compound?
A: markedly reduced

Q: What about the selectivity ratio (JEV [3]; human) of the same compound?
A: 78.2

Q: And the “ML-SA1-induced cytosolic Ca2+ increase” value (TRPMLs; 10 μM, 25 μM ML-SA1)?
A: significantly inhibited

Q: Which “ZIKV infection in JEG-3 cells” value (ZIKV [4]) does the source give for `COc1ccc2cc1Oc1ccc(cc1)C[C@H]1c3cc(c(OC)cc3CCN1C)Oc1c(O)c(OC)cc3c1[C@H](C2)N(C)CC3` [fangchinoline] here?
A: significantly inhibited

Q: And the “ZIKV infection of host cells” value (ZIKV [12])?
A: significantly inhibited

Q: What about the “DENV-2 infection in A549 cells” value (DENV-2) of the same compound?
A: significantly inhibit

Q: What about the “JEV infection in JEG-3 cells” value (JEV [7]) of the same compound?
A: significantly inhibited

Q: What about the “JEV infection of host cells” value (JEV [3]) of the same compound?
A: significantly inhibited

Q: Which results are given for `COc1ccc2cc1Oc1ccc(cc1)C[C@H]1c3cc(c(OC)cc3CCN1C)Oc1c(OC)c(OC)cc3c1[C@@H](C2)N(C)CC3` [isotetrandrine]?
A: ZIKV infection in JEG-3 cells (ZIKV [4]): significantly inhibited; ZIKV infection of host cells (ZIKV [12]): significantly inhibited; DENV-2 infection in A549 cells (DENV-2): significantly inhibit; JEV infection in JEG-3 cells (JEV [7]): significantly inhibited; JEV infection of host cells (JEV [3]): significantly inhibited
